Data taken from ChEMBL document CHEMBL3091344, “17(E)-picolinylidene androstane derivatives as potential inhibitors of prostate cancer cell growth: antiproliferative activity and molecular docking studies” (Bioorg Med Chem, 2013).

Assays:
MRC5 [1] = assay: Cytotoxicity against human MRC5 cells assessed as growth inhibition after 48 hrs by SRB assay; type: cell-based; settings: MRC5, 48 h
PC-3 [2] = assay: Cytotoxicity against human PC3 cells assessed as growth inhibition after 48 hrs by SRB assay; type: functional, cell-based; settings: PC-3, 48 h
MDA-MB-231 [3] = assay: Cytotoxicity against ER-negative human MDA-MB-231 cells assessed as growth inhibition after 48 hrs by SRB assay; type: functional, cell-based; settings: MDA-MB-231, 48 h
MCF7 [4] = assay: Cytotoxicity against ER-positive human MCF7 cells assessed as growth inhibition after 48 hrs by SRB assay; type: functional, cell-based; settings: MCF7, 48 h
MRC5 [5] = assay: Cytotoxicity against human MRC5 cells assessed as growth inhibition after 48 hrs by MTT assay; type: cell-based; settings: MRC5, 48 h
HT-29 = assay: Cytotoxicity against human HT-29 cells assessed as growth inhibition after 48 hrs by MTT assay; type: functional, cell-based; settings: HT-29, 48 h
HeLa = assay: Cytotoxicity against human HeLa cells assessed as growth inhibition after 48 hrs by MTT assay; type: functional, cell-based
PC-3 [6] = assay: Cytotoxicity against human PC3 cells assessed as growth inhibition after 48 hrs by MTT assay; type: functional, cell-based; settings: PC-3, 48 h
MDA-MB-231 [7] = assay: Cytotoxicity against ER-negative human MDA-MB-231 cells assessed as growth inhibition after 48 hrs by MTT assay; type: functional, cell-based; settings: MDA-MB-231, 48 h
MCF7 [8] = assay: Cytotoxicity against ER-positive human MCF7 cells assessed as growth inhibition after 48 hrs by MTT assay; type: functional, cell-based; settings: MCF7, 48 h

| Structure (SMILES) | IC50 (MRC5 [1]) [µM] | IC50 (PC-3 [2]) [µM] | IC50 (MDA-MB-231 [3]) [µM] | IC50 (MCF7 [4]) [µM] | IC50 (MRC5 [5]) [µM] | IC50 (HT-29) [µM] | IC50 (HeLa) [µM] | IC50 (PC-3 [6]) [µM] | IC50 (MDA-MB-231 [7]) [µM] | IC50 (MCF7 [8]) [µM] |
| --- | --- | --- | --- | --- | --- | --- | --- | --- | --- | --- |
| C[C@]12CCC(=O)C=C1CC[C@@H]1[C@@H]2CC[C@]2(C)/C(=C/c3ccccn3)CC[C@@H]12 | > 100 | 12.9 | > 100 | > 100 |  |  |  |  |  |  |
| C#CCC[C@@]1(C)C(=O)CC[C@@H]2[C@@H]1CC[C@@]1(C)[C@H]2CC[C@@]1(O)Cc1ccccn1 |  |  |  |  | > 100 | 6.5 | > 100 | > 100 | > 100 | > 100 |
| C[C@]12CC[C@H]3[C@@H](CC[C@@]4(O)C=CCC[C@]34C)[C@@H]1CC/C2=C\c1ccccn1 |  |  |  |  | > 100 | 57.2 | 49.4 | > 100 | > 100 | > 100 |
| C[C@]12CC[C@H]3[C@@H](CC[C@]45O[C@H]4C(=O)CC[C@]35C)[C@@H]1CC/C2=C\c1ccccn1 |  |  |  |  | > 100 |  |  | 14.3 | 88.3 | 50.7 |
| C[C@]12CC[C@H]3[C@@H](CC[C@@]4(O)C=CCC[C@]34C)[C@@H]1CC[C@@]2(O)Cc1ccccn1 |  |  |  |  | > 100 | > 100 | > 100 | > 100 | > 100 | > 100 |
| C[C@]12CC[C@H]3[C@@H](CC[C@]45O[C@H]4C(=O)CC[C@]35C)[C@@H]1CC[C@@]2(O)Cc1ccccn1 |  |  |  |  | > 100 |  |  | 65.5 | 10.4 | > 100 |
| C[C@]12CC/C(=N\N)C=C1CC[C@@H]1[C@@H]2CC[C@]2(C)/C(=C/c3ccccn3)CC[C@@H]12 |  |  |  |  | > 100 | 51.7 | > 100 | 5.9 | 17.1 | 13.6 |
| C[C@]12CC/C(=N\N)C=C1CC[C@@H]1[C@@H]2CC[C@@]2(C)[C@H]1CC[C@@]2(O)Cc1ccccn1 |  |  |  |  | > 100 | > 100 | > 100 | > 100 | 32.5 | 6.3 |
| C[C@]12CCC(=O)C=C1CC[C@@H]1[C@@H]2CC[C@@]2(C)[C@H]1CC[C@@]2(O)Cc1ccccn1 | > 100 | > 100 | > 100 | > 100 |  |  |  |  |  |  |
| C[C@]12CC[C@H](O)CC1=CC[C@@H]1[C@@H]2CC[C@]2(C)C(c3cccnc3)=CC[C@@H]12 [ABIRATERONE] |  |  |  |  |  |  |  | 9.32 |  |  |
| COc1cccc2c1C(=O)c1c(O)c3c(c(O)c1C2=O)C[C@@](O)(C(=O)CO)C[C@@H]3O[C@H]1C[C@H](N)[C@H](O)[C@H](C)O1 [DOXORUBICIN] |  |  |  |  |  | 0.32 |  |  |  | 0.75 |
| C[C@]12CCC(=O)C(O)=C1CC[C@@H]1[C@@H]2CC[C@]2(C)C(=O)CC[C@@H]12 [FORMESTANE] |  |  |  |  | > 100 | > 100 |  |  |  | > 100 |
